According to patent US9446081B2, “Pharmaceutical composition for preventing and treating complications of diabetes containing a traditional oriental medicine extract or a fraction thereof as an active ingredient” (KOREA INSTITUTE OF ORIENTAL MEDICINE, priority 2011, dated 2016):

Columns and labels:
[1] = test system: spontaneous diabetic Torii (SDT) rats; assay: Inhibition of diabetic retinopathy in type II diabetic animal model; type: in vivo, rat; details: oral once a day 16 weeks, metformin 350 mg/kg
Description: (§1) To investigate the effect of the extract of Homonoia riparia Lour. on the prevention and treatment of diabetic complications in spontaneous diabetic Torii (SDT) rats, the type II diabetic animal model, the extract of Homonoia riparia Lour. was orally administered to the animal for 16 weeks. 10-week old male SDT rats (CLEA Japan Inc., Tokyo, Japan) were adapted for 1 week, and then continued to raise for 15 weeks until the blood sugar level reached 300 mg/dl. Feed and water were provided freely. 15 weeks later, the rats were grouped into 5 group (8 rats per group), to which the extract of Homonoia riparia Lour. (HR) and the control drug MET were administered orally once a day. The experimental groups included the normal group (NOR), the diabetic group (DM), the metformin (350 mg/kg) treated diabetic group (MET), the Homonoia riparia Lour. extract (100 mg/kg) treated diabetic group (HR-100), and the Homonoia riparia Lour. extract (250 mg/kg) treated diabetic group (HR-250). Each group was administered with the test samples orally once a day for 16 weeks. Urine was picked up 24 hours before autopsy. The organs extracted by autopsy were stored at −80° C.
When hyperglycemic state continues, retinal vessels in eyeball become mal-functioning to cause blood-retinal barrier breakage. […]

[2] = test system: spontaneous diabetic Torii (SDT) rats; assay: Diabetic nephropathy in type II diabetic animal model; type: in vivo, rat; details: oral once a day 16 weeks
Description: as §1
To investigate the effect of the extract of Homonoia riparia Lour. on the functions of the kidney suffering from chronic diabetes, urine was taken from the animal model 24 hours before the autopsy, with which renal indices {proteinuria, albuminuria, and glomerular filtration rate (Ccr)}, and glycation products (AGES and CML) were quantified. ELISA was performed to measure proteinuria, albuminuria, glomerular filtration rate, AGEs, CML, and podocyte (synaptopodin and WT-1). Particularly, the urine sample was mixed with coating buffer (50 mM carbonate buffer, pH 9.6) to make the final volume to be 100 μl (1:2), which was distributed in a 96-well plate. The plate stood at 37° C. for 3 hours and then washed with 0.05% PBST three times, followed by blocking with 3% skim milk. The plate stood as it was for 1 more hour and then washed. AGEs (Transgenic, JAPAN), CML (Transgenic, JAPAN), albumin, synaptopodin, and WT-1 (Santa Cruz, USA) antibodies were diluted respectively at the ratio of 1:1000, which were loaded in each well of the plate by 100 μl. The plate stood at 37° C. for 2 hours, and washed with 0.05% PBST. HRP-conjugated secondary antibody was loaded in each well of the plate by 100 μl, followed by reacting at 37° C. for 1 hour. 100 μl of the substrate, 3,3′,5,5′-tetramethylbenzidine (TMB) in 0.05% PBST was added to each well of the plate. 5 minutes later, the reaction was terminated by adding 1M H2SO4 solution (100 μl/well). Then OD was measured with an ELISA reader.
Immunological staining was performed as follows. After deparaffinization and hydration, the slide was reacted in 3% H2O2 solution for 10 minutes to deactivate endogenous peroxidase activity therein. Then, the slide was washed with PBS containing 0.05% tween 20 three times. To eliminate non-specific reaction, the slide was blocked with 5% AFB (animal free bock). The primary antibodies AGEs (Transgenic, Japan) and CML (Transgenic, Japan) were diluted (1:1000) and treated to the slide for 1 hour or overnight. After washing with PBS for 1 hour, the slide was treated with labeled streptavidin biotin (LSAB) kit (Dako, USA), followed by color development by using DAB (Dako, USA). Observation was performed under optical microscope.
The kidney was extracted from the animal model during the autopsy, which was fixed in 10% neutralized formalin for overnight. […]

[3] = extract 100 or 250 mg/kg, metformin 350 mg/kg, vs diabetic group (DM), FIG. 6

CN(C)C(=N)N=C(N)N [metformin]
blood-retinal barrier breakage (fluorescein-dextran flown out of retinal vessels, non-perfusion area) ([1]; extract 100 or 250 mg/kg (HR-100, HR-250), FIG. 2): fluorescent material was merely observed
pericyte loss, acellular capillary formation and closed vessels in retina ([1]; extract 100 or 250 mg/kg, vs diabetic group, FIG. 3): significantly decreased
glomerular hypertrophy and mesangial matrix expansion / morphological changes (PAS staining) ([2]; extract 100 or 250 mg/kg dose-dependently, metformin 350 mg/kg (not so significant), FIG. 9): decreased
AGEs and CML in urine ([2]; extract 100 or 250 mg/kg, metformin 350 mg/kg, FIG. 7): not much reduced
albuminuria [2, 3]: significantly reduced
proteinuria [2, 3]: higher
collagen deposition in glomerulus (Masson's trichrome staining) ([2]; extract 100 or 250 mg/kg, metformin 350 mg/kg, vs diabetic group (DM), FIG. 10): not much different
